# Calls of active or inactive are those of the source.
# Legend:
# [1] = HEK293T cytotoxicity, dose response, cytotoxicity control for miR-122 modulator project, cell-based, inhibitor set, cherry-pick, set 2 (AID 720697); format: functional
# BJ [2] = test: cytotoxicity toward BJ-TERT fibroblasts, dose response, cell-based, RAS-independent, luminescence (AID 1933); format: functional; conditions: Homo sapiens
# BJ [3] = test: cytotoxicity toward BJ-TERT-LT-ST fibroblasts, dose response, cell-based, RAS-independent, luminescence (AID 1935); format: functional; conditions: Homo sapiens;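 also: BJ fibroblasts immortalized with TERT plus LT and ST oncogenes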
# [4] = cytotoxicity toward DRD oncogenic fibroblasts, dose response, cell-based, non-viral oncogenic, luminescence (AID 1934); format: functional; conditions: Homo sapiens
# BJ [5] = test: cells; format: functional, cell-based; conditions: Homo sapiens
# [6] = target: T1, Corticotropin-releasing factor receptor 2/Corticotropin-releasing factor-binding protein (Homo sapiens, UniProt P24387+Q13324); test: Dose Response confirmation of uHTS hits for small molecule antagonists of the CRF-binding protein and CRF-R2 receptor complex.; format: functional; conditions: read-out: IC50_Mean
# T1 sequence (Q13324 whole entry): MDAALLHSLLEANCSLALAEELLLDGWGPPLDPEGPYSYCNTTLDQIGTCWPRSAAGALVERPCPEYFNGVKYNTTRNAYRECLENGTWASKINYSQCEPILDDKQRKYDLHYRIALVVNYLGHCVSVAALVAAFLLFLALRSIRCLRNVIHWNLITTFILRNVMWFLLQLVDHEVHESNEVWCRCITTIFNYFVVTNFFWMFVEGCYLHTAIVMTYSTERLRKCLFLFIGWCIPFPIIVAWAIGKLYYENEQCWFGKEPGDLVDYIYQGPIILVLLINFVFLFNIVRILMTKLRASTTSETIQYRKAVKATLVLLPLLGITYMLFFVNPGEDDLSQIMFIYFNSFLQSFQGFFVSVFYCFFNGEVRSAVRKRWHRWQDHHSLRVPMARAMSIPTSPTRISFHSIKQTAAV
# T1 sequence (P24387 whole entry): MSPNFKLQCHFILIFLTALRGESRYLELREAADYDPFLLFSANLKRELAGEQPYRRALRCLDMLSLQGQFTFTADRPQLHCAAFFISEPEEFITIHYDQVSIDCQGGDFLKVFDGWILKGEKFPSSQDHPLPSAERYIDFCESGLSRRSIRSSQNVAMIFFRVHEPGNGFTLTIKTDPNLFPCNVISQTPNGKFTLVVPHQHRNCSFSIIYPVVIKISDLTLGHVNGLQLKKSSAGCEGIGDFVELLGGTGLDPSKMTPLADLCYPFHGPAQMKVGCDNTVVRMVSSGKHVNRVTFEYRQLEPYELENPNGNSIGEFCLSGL
# [7] = target: T1, Corticotropin-releasing factor receptor 2/Corticotropin-releasing factor-binding protein; test: activators of CRF receptor 2 with binding protein – uHTS hits, confirmation (AID 602473); format: functional; conditions: read-out: EC50_Mean
# [8] = target: T2, High affinity choline transporter 1 (Homo sapiens, UniProt Q9GZV3); test: CHT inhibitors, dose response, cell-based, 5-point CRC, membrane potential dye (AID 504840); format: functional
# T2 sequence (Q9GZV3 whole entry): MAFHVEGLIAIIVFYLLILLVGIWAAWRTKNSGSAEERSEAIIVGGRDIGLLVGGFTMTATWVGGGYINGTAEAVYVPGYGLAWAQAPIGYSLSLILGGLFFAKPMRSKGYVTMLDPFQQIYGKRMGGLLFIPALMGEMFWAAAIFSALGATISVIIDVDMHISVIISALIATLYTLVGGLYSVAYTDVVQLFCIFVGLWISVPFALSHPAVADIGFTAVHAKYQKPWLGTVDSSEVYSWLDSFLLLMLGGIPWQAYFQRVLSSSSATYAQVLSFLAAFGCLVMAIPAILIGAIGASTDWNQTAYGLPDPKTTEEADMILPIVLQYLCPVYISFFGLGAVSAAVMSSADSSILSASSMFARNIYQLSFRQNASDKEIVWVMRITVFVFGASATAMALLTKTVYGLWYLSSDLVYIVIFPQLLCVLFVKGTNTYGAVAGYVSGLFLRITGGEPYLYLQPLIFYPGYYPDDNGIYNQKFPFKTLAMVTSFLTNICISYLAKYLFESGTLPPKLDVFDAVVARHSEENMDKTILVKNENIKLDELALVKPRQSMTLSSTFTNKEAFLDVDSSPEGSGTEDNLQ
# [9] = target: T3, Short transient receptor potential channel 4 (Mus musculus, UniProt Q9QUQ5); test: mouse TRPC4 channel inhibitors, dose response, cell-based, HEK293 TRPC4/mu-opioid, Fluo-4 calcium (AID 434942); format: functional;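 also: potency of inhibitors blocking the TRPC4 calcium response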
# T3 sequence (Q9QUQ5 whole entry): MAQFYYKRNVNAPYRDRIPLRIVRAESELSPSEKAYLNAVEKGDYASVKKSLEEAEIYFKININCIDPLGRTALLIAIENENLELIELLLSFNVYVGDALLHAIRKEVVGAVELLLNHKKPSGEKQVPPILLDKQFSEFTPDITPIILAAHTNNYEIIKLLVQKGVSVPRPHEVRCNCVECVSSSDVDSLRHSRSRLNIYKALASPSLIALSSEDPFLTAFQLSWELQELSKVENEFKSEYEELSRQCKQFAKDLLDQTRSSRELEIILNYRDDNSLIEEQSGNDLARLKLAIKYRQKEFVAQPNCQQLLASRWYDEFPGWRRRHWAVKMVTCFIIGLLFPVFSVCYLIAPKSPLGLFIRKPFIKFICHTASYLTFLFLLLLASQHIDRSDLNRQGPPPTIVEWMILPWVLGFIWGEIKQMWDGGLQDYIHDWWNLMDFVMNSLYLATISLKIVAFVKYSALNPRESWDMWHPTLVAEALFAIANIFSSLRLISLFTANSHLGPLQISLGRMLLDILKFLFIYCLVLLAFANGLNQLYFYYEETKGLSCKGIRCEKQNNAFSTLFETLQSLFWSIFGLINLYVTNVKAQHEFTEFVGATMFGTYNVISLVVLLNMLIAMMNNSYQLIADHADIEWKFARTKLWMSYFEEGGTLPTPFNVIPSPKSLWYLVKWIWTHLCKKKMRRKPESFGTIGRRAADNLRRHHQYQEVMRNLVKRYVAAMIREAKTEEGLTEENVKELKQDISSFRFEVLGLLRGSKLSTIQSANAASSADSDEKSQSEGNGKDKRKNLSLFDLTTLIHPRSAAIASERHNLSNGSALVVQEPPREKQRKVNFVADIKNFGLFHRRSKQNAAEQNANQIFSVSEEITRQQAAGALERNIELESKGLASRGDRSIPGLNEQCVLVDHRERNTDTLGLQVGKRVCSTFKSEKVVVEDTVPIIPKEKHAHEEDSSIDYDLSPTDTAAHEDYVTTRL
# [10] = Luminescence Cell-Based Dose Retest to Confirm Inhibitors of Cancer Stem Cells. [Related pubchem assays (depositor defined):AID2717, AID2721]; format: functional; conditions: Homo sapiens
# [11] = target: Glyceraldehyde-3-phosphate dehydrogenase (Homo sapiens, UniProt P04406)
# [12] = Luminescence Cell-Based Dose Confirmation HTS to Identify Inhibitors of Platelet Dense Granule Release. [Related pubchem assays: 1663 (Primary HTS), 1678 (Summary of Project)]; format: functional
# [13] = target: Luciferin 4-monooxygenase (Photinus pyralis, UniProt P08659); test: firefly luciferase enzyme inhibitors, dose response, biochemical, luminescence (AID 1891)
# Streptokinase A = target: T4, Streptokinase A (Streptococcus pyogenes serotype M1, UniProt P10520); test: S. pyogenes streptokinase expression inhibitors, potency, dose response, plasminogen activation absorbance, OD405 (AID 1914); format: functional, Streptococcus pyogenes M1 GAS;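 also: secreted streptokinase activity via plasminogen activation per viability signal from cell pellet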
# T4 sequence (P10520 whole entry): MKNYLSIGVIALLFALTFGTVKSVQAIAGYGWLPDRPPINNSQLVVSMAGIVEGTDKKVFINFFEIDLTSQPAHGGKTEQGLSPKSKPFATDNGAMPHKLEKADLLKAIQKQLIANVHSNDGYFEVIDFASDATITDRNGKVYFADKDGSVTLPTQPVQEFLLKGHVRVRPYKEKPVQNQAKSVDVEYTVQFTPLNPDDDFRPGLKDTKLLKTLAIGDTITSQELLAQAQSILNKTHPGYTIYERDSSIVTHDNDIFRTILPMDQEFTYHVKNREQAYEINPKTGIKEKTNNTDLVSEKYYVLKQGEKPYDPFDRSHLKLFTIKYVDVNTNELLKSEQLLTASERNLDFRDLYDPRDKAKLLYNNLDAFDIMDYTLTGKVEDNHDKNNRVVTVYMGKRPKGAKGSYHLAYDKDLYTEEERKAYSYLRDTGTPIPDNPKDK
# [14] = cytotoxicity toward NIH3T3 fibroblasts, dose response, counter-screen, cell-based, ATP luminescence, mouse fibroblasts (AID 2010); format: functional;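 also: cells exposed to compound for about 90 hours before reading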
# Streptococcus = test: Group A Streptococcus viability loss, dose response, counter-screen for streptokinase expression inhibitor project, luminescence, BacTiterGlo (AID 1915); format: functional, organism-based;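 also: potency for reduction of bacterial viability or growth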
# [15] = test system: Streptococcus sp. 'group A'; test: growth inhibition of control SK(-) GAS strain, dose response, counter-screen for streptokinase expression inhibitor project, luminescence, kanamycin, BacTiterGlo, confirmation (AID 1900); format: functional, organism-based
# [16] = inhibitors of intracellular T. cruzi replication, confirmation, NIH3T3 host cells, beta-gal luminescence (AID 2044); format: functional, cell-based;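 also: intracellular parasites grown in NIH/3T3 mouse fibroblasts as host cells; luminescent beta-galactosidase reporter signal from transgenic T. cruzi replicating inside host cells; inhibitors lower the luminescence signal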
# [17] = target: Heat shock protein HSP 90-alpha (Homo sapiens, UniProt P07900); format: functional, organism-based
# [18] = target: T5, Rac GTPase-activating protein 1 (Homo sapiens, UniProt Q9H0H5); test: MgcRacGAP GTPase-activating activity inhibitors, confirmation, biochemical, ADP Hunter fluorescence, primary and confirmatory (AID 624330); format: functional
# T5 sequence (Q9H0H5 whole entry): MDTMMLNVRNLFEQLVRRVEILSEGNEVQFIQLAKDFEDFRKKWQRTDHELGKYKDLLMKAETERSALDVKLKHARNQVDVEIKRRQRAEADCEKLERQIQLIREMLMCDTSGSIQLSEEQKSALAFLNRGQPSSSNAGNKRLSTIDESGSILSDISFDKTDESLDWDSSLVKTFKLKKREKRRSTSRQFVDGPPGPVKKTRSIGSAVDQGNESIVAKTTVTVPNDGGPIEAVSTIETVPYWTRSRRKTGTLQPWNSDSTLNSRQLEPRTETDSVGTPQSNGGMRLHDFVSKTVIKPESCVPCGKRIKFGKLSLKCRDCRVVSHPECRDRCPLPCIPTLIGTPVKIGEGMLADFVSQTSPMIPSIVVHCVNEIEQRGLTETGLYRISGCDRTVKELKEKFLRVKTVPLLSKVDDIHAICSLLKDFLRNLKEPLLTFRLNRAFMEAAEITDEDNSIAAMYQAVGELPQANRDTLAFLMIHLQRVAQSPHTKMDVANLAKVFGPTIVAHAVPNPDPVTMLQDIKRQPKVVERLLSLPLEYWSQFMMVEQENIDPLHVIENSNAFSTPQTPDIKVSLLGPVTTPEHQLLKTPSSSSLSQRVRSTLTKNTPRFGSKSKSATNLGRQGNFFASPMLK
# Sequence of Glyceraldehyde-3-phosphate dehydrogenase (P04406 whole entry): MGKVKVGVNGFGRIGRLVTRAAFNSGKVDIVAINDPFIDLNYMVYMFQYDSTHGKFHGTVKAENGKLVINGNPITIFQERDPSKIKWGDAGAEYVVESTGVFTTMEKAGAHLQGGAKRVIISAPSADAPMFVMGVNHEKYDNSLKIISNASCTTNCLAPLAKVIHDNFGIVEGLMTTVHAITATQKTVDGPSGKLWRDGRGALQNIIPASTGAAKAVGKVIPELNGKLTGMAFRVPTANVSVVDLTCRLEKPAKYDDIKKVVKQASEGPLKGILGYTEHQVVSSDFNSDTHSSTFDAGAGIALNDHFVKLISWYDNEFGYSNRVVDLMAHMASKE
# Sequence of Luciferin 4-monooxygenase (P08659 whole entry): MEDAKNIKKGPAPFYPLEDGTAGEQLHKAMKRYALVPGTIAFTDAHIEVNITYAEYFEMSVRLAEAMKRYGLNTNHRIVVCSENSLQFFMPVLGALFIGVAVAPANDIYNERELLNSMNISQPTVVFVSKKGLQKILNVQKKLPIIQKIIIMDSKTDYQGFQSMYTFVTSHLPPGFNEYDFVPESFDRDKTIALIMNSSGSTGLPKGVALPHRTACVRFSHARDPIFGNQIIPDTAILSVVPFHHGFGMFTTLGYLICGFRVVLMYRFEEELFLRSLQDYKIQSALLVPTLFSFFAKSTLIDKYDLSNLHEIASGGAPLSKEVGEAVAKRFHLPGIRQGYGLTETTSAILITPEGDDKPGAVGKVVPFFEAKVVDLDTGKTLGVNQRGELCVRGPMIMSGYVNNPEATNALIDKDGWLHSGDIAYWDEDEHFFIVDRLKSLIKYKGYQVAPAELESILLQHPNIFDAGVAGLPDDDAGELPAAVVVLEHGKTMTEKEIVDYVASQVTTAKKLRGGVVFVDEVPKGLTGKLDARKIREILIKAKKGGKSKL
smiles,measurement,setting,value
CNc1nc(NCC2CCCCC2)c2sccc2n1,AC50,[1],3.63 µM (active)
N#CC1=C2SCC(O)(c3ccccc3)N2C(=O)CC1c1ccccc1 (stereo unspecified),EC50,BJ [2],4.26 µM (active)
same,EC50,BJ [3],3.28 µM (active)
same,EC50,[4],3.01 µM (active)
same,EC50,BJ [5],51.4 µM (active)
CCc1nnc(NC(=O)CSc2nnnn2-c2cccc(C(C)=O)c2)s1,IC50,[6],> 47.1 µM (inactive)
same,EC50,[7],> 53 µM (inactive)
CCc1cc([N+](=O)[O-])cc(CC)c1N,IC50,[8],13.8 µM (active)
CCN(CC)c1nc2ccccc2c(N)c1-c1ccccc1,EC50,[9],2.66 µM (active)
CCOC(=O)C1CN(S(=O)(=O)c2ccccc2)CCN1S(=O)(=O)c1ccccc1 (stereo unspecified),AC50,[1],1.54 µM (active)
O=[N+]([O-])c1cccc(CSc2nnc3ccccn23)c1,IC50,[8],16.6 µM (active)
O=C(CN1CCCC1)Nc1ccc(Cl)cc1C(=O)c1ccccc1,AC50,[10],16.1 µM (active)
same,EC50,[9],1.5 µM (active)
CCOC(=O)c1ccc(NC(=O)C(=O)NCc2ccco2)cc1,EC50,BJ [2],> 150 µM (not active)
same,EC50,BJ [3],> 150 µM (not active)
same,EC50,[4],> 150 µM (not active)
same,EC50,BJ [5],> 150 µM (not active)
CCOc1ccc2ccccc2c1CNCCc1ccc(S(N)(=O)=O)cc1,EC50,[9],4.73 µM (active)
O=C1C(Cl)=C(N2CCN(c3ccccc3)CC2)C(=O)N1c1ccnc(Cl)c1,IC50,[11],> 50 µM (inconclusive)
COc1cc2c(cc1OC)-c1cc(NC3CCCCCC3)nc(=O)n1CC2,IC50,[8],12.9 µM (active)
same,EC50,[12],2.94 µM (active)
same,EC50,[13],> 112 µM (not active)
COC(=O)C[C@@H]1CC[C@H]2[C@@H](COc3ccc(NC(=O)c4ccc(C(F)(F)F)cc4)cc3C(=O)N2C)O1,AC50,[1],10 µM (active)
CCC(C)NC(=O)Cn1cnc2sc(C)c(S(=O)(=O)N3CCCCC3)c2c1=O (stereo unspecified),IC50,[6],> 47.1 µM (inactive)
same,EC50,[7],> 53 µM (inactive)
COc1cc2ccccc2cc1C(=O)Nc1ccc(S(=O)(=O)Nc2cc(C)on2)cc1,IC50,[8],13.8 µM (active)
CCCC1CC(C#N)N(N(C)C)C1=C(C#N)C#N (stereo unspecified),IC50,[6],> 47.1 µM (inactive)
same,EC50,[7],> 53 µM (inactive)
Cc1cccc(NC(=O)Nc2ccc3c(c2)C(=O)N(C)[C@H]2CC[C@H](CC(=O)O)O[C@H]2CO3)c1,AC50,[1],10.6 µM (active)
COCCN1CC(=O)N(c2cccc(C)c2C)C(c2ccc(Cl)cc2)C1=O (stereo unspecified),IC50,[6],> 47.1 µM (inactive)
same,EC50,[7],> 53 µM (inactive)
Cc1nn2c(NCc3ccccn3)cc(C(C)(C)C)nc2c1-c1ccccc1,EC50,Streptokinase A,> 150 µM (not active)
same,EC50,[14],> 60 µM (not active)
same,EC50,Streptococcus,5.79 µM (active)
same,EC50,[15],3.41 µM (active)
same,EC50,[16],2.21 µM (active)
same,AC50,[17],1.78 µM (active)
Cc1ccc(NC(=O)c2ncn(CCCNCC3CCCO3)n2)cc1C (stereo unspecified),IC50,[6],> 47.1 µM (inactive)
same,EC50,[7],> 53 µM (inactive)
Cc1ccc(C(=O)C(SC(C)(C)C)n2cncn2)cc1 (stereo unspecified),AC50,[17],3.99 µM (active)
COc1cccc(CNc2ccc(N3CCC(C)CC3)cc2)c1OC,IC50,[8],13.2 µM (active)
same,IC50,[18],7.86 µM (active)
COc1ccccc1/C=C/C(=O)N1CCOCC1,IC50,[6],> 47.1 µM (inactive)
same,EC50,[7],> 53 µM (inactive)
Cc1ccc(N2C(=O)C(Cl)=C(N3CCN(Cc4ccc5c(c4)OCO5)CC3)C2=O)cc1,IC50,[11],> 50 µM (inconclusive)
CCn1cc(/C=C(\NC(=O)c2ccccc2F)C(=O)N2CCOCC2)c2ccccc21,IC50,[8],15.6 µM (active)
